Experimental data: ChEMBL document CHEMBL1124687, “Analogues of atriopeptin(103-125)amide having high binding selectivity” (J Med Chem, 1989)
Positions of bridges follow the written chain, without caps; N, C: chain ends. Non-standard residues stand in square brackets, D forms with d. Residues, ends and D or L forms follow the SMILES beside them. ξ: configuration not given here. Nva = CCC[C@H](N)C(=O)O; Abu = CC[C@H](N)C(=O)O; ξA = CC(N)C(=O)O

Legend:
[1] = biological target: Atrial natriuretic peptide receptor (Homo sapiens) (UniProt P20594+P16066+P17342); test: Selectivity factor, ratio of NVR and VR relative binding potency; format: protein assay; conditions: Oryctolagus cuniculus
[2] = biological target: T1, Atrial natriuretic peptide receptor 3 (Homo sapiens) (UniProt P17342); test: Binding affinity for non-vasorelaxant receptor by competitive displacement of [125I]-AP(103-126) from rabbit lung membranes; format: tissue-based; conditions: Oryctolagus cuniculus, Membrane, target entry is the homologue from another species
T1 sequence (whole entry): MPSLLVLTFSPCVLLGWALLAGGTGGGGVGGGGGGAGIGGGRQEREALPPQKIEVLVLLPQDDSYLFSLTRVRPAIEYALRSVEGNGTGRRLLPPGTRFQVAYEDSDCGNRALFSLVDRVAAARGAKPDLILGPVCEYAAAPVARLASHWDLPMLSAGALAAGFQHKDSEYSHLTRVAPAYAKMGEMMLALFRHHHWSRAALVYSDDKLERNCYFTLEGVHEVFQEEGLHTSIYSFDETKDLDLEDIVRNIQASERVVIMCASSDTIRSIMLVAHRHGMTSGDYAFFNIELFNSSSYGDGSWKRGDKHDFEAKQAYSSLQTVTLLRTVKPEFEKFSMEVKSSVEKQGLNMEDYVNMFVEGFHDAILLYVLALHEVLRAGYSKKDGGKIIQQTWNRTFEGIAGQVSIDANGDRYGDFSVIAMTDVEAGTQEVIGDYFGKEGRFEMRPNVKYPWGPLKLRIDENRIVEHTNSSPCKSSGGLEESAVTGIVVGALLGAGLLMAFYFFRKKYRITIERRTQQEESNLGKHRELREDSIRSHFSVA

[3] = organism: Oryctolagus cuniculus; test: Binding affinity for vasorelaxant receptor by competitive displacement of [125I]-AP(103-126) from rabbit lung membranes; format: tissue-based; conditions: Membrane

SMILES: CC[C@H](C)[C@@H]1NC(=O)[C@H](CCCN=C(N)N)NC(=O)CNC(=O)CNC(=O)[C@H](Cc2ccccc2)NC(=O)[C@H](CO)NC(=O)[C@@H](NC(=O)[C@@H](N)CO)CSSC[C@@H](C(=O)N[C@@H](CO)C(=O)N[C@@H](Cc2ccccc2)C(=O)N[C@@H](CCCN=C(N)N)C(N)=O)NC(=O)[C@H](CO)NC(=O)CNC(=O)[C@H](CC(C)C)NC(=O)CNC(=O)[C@H](CO)NC(=O)[C@H](CCC(N)=O)NC(=O)[C@H](C)NC(=O)CNC(=O)[C@H]([C@@H](C)CC)NC(=O)[C@@H](CCCN=C(N)N)NC(=O)[C@H](CC(=O)O)NC1=O
- Ratio [1]: 400
- Relative potency [2]: 2
- Relative potency [3]: 0.005

SMILES: CC[C@H](C)[C@@H]1NC(=O)[C@H](CCCN=C(N)N)NC(=O)[C@H](CC(=O)O)NC(=O)[C@H]([C@@H](C)CC)NC(=O)[C@H](CCCN=C(N)N)NC(=O)CNC(=O)CNC(=O)[C@H](Cc2ccccc2)NC(=O)CNC(=O)[C@@H](NC(=O)[C@@H](N)CO)CSSC[C@H](C(=O)N[C@@H](CC(N)=O)C(=O)N[C@@H](CO)C(=O)N[C@@H](Cc2ccccc2)C(=O)N[C@@H](CCCN=C(N)N)C(N)=O)NC(=O)CNC(=O)[C@H](CC(C)C)NC(=O)CNC(=O)[C@H](CO)NC(=O)[C@H](CCC(N)=O)NC(=O)[C@H](C)NC(=O)CNC1=O
- Ratio [1]: 32
- Relative potency [2]: 1.8
- Relative potency [3]: 0.056

SMILES: CC[C@H](C)[C@@H]1NC(=O)[C@H](CCCN=C(N)N)NC(=O)[C@H](CC(=O)O)NC(=O)[C@H]([C@@H](C)CC)NC(=O)[C@H](CCCN=C(N)N)NC(=O)CNC(=O)CNC(=O)[C@H](Cc2ccccc2)NC(=O)[C@H](NC(=O)[C@H](CO)NC(=O)[C@@H](N)CO)CSSC[C@@H](C(=O)N[C@@H](CO)C(=O)N[C@@H](Cc2ccccc2)C(=O)N[C@@H](CCCN=C(N)N)C(N)=O)NC(=O)[C@H](CSC)NC(=O)CNC(=O)[C@H](CC(C)C)NC(=O)CNC(=O)[C@H](CO)NC(=O)[C@H](CCC(N)=O)NC(=O)[C@H](C)NC(=O)CNC1=O
- Ratio [1]: 31
- Relative potency [2]: 3.1
- Relative potency [3]: 0.1

SMILES: CC[C@H](C)[C@@H]1NC(=O)[C@H](CCCN=C(N)N)NC(=O)[C@H](CC(=O)O)NC(=O)[C@H]([C@@H](C)CC)NC(=O)[C@H](CCCN=C(N)N)NC(=O)CNC(=O)CNC(=O)[C@H](Cc2ccccc2)NC(=O)[C@H](CSC)NC(=O)[C@@H](NC(=O)[C@@H](N)CO)CSSC[C@@H](C(=O)N[C@@H](CC(N)=O)C(=O)N[C@@H](CO)C(=O)N[C@@H](Cc2ccccc2)C(=O)N[C@@H](CCCN=C(N)N)C(N)=O)NC(=O)CNC(=O)[C@H](CC(C)C)NC(=O)CNC(=O)[C@H](CO)NC(=O)[C@H](CCC(N)=O)NC(=O)[C@H](C)NC(=O)CNC1=O (H-SCC(Me)FGGRIDRIGAQSGLGCNSFR-NH2; disulfide 2-19)
- Ratio [1]: 24
- Relative potency [2]: 6.6
- Relative potency [3]: 0.28

SMILES: CC[C@H](C)[C@@H]1NC(=O)[C@H](CCCN=C(N)N)NC(=O)[C@H](CC(=O)O)NC(=O)[C@H]([C@@H](C)CC)NC(=O)[C@H](CCCN=C(N)N)NC(=O)CNC(=O)CNC(=O)[C@H](Cc2ccccc2)NC(=O)CNC(=O)[C@@H](NC(=O)[C@@H](N)CO)CSSC[C@@H](C(=O)N[C@@H](CO)C(=O)N[C@@H](Cc2ccccc2)C(=O)N[C@@H](CCCN=C(N)N)C(N)=O)NC(=O)CNC(=O)CNC(=O)[C@H](CC(C)C)NC(=O)CNC(=O)[C@H](CO)NC(=O)[C@H](CCC(N)=O)NC(=O)[C@H](C)NC(=O)CNC1=O (H-SCGFGGRIDRIGAQSGLGGCSFR-NH2; disulfide 2-20)
- Ratio [1]: 217
- Relative potency [2]: 1.5
- Relative potency [3]: 0.0069

SMILES: CC[C@H](C)[C@@H]1NC(=O)[C@H](CCCN=C(N)N)NC(=O)[C@H](CC(=O)O)NC(=O)[C@H]([C@@H](C)CC)NC(=O)[C@H](CCCN=C(N)N)NC(=O)CNC(=O)CNC(=O)[C@H](Cc2ccccc2)NC(=O)[C@H](CO)NC(=O)[C@@H](NC(=O)[C@@H](N)CO)CSSC[C@@H](C(=O)N[C@@H](CC(N)=O)C(=O)N[C@@H](CO)C(=O)N[C@@H](Cc2ccccc2)C(=O)N[C@@H](CCCN=C(N)N)C(N)=O)NC(=O)CNC(=O)[C@H](CC(C)C)NC(=O)CNC(=O)[C@H](CO)NC(=O)[C@H](CCC(N)=O)NC(=O)[C@H](C)NC(=O)CNC1=O (H-SCSFGGRIDRIGAQSGLGCNSFR-NH2; disulfide 2-19)
- Ratio [1]: 16
- Relative potency [2]: 3.8
- Relative potency [3]: 0.24

SMILES: CC[C@@H]1NC(=O)[C@@H](NC(=O)[C@@H](N)CO)CSSC[C@@H](C(=O)N[C@@H](CC(N)=O)C(=O)N[C@@H](CO)C(=O)N[C@@H](Cc2ccccc2)C(=O)N[C@@H](CCCN=C(N)N)C(N)=O)NC(=O)CNC(=O)[C@H](CC(C)C)NC(=O)CNC(=O)[C@H](CO)NC(=O)[C@H](CCC(N)=O)NC(=O)[C@H](C)NC(=O)CNC(=O)[C@H]([C@@H](C)CC)NC(=O)[C@H](CCCN=C(N)N)NC(=O)[C@H](CC(=O)O)NC(=O)[C@H]([C@@H](C)CC)NC(=O)[C@H](CCCN=C(N)N)NC(=O)CNC(=O)CNC(=O)[C@H](Cc2ccccc2)NC1=O (H-SC[Abu]FGGRIDRIGAQSGLGCNSFR-NH2; disulfide 2-19)
- Ratio [1]: 40
- Relative potency [2]: 2.1
- Relative potency [3]: 0.053

SMILES: CCC[C@@H]1NC(=O)[C@@H](NC(=O)[C@@H](N)CO)CSSC[C@@H](C(=O)N[C@@H](CC(N)=O)C(=O)N[C@@H](CO)C(=O)N[C@@H](Cc2ccccc2)C(=O)N[C@@H](CCCN=C(N)N)C(N)=O)NC(=O)CNC(=O)[C@H](CC(C)C)NC(=O)CNC(=O)[C@H](CO)NC(=O)[C@H](CCC(N)=O)NC(=O)[C@H](C)NC(=O)CNC(=O)[C@H]([C@@H](C)CC)NC(=O)[C@H](CCCN=C(N)N)NC(=O)[C@H](CC(=O)O)NC(=O)[C@H]([C@@H](C)CC)NC(=O)[C@H](CCCN=C(N)N)NC(=O)CNC(=O)CNC(=O)[C@H](Cc2ccccc2)NC1=O (H-SC[Nva]FGGRIDRIGAQSGLGCNSFR-NH2; disulfide 2-19)
- Ratio [1]: 89
- Relative potency [2]: 0.75
- Relative potency [3]: 0.0084

SMILES: CCC[C@@H]1NC(=O)CNC(=O)[C@H](CC(C)C)NC(=O)CNC(=O)[C@H](CO)NC(=O)[C@H](CCC(N)=O)NC(=O)[C@H](C)NC(=O)CNC(=O)[C@H]([C@@H](C)CC)NC(=O)[C@H](CCCN=C(N)N)NC(=O)[C@H](CC(=O)O)NC(=O)[C@H]([C@@H](C)CC)NC(=O)[C@H](CCCN=C(N)N)NC(=O)CNC(=O)CNC(=O)[C@H](Cc2ccccc2)NC(=O)[C@H](CCC)NC(=O)[C@@H](NC(=O)[C@@H](N)CO)CSSC[C@@H](C(=O)N[C@@H](CO)C(=O)N[C@@H](Cc2ccccc2)C(=O)N[C@@H](CCCN=C(N)N)C(N)=O)NC1=O (H-SC[Nva]FGGRIDRIGAQSGLG[Nva]CSFR-NH2; disulfide 2-20)
- Ratio [1]: 470
- Relative potency [2]: 0.47
- Relative potency [3]: 0.001

SMILES: CC[C@H](C)[C@@H]1NC(=O)[C@H](CCCN=C(N)N)NC(=O)[C@H](CC(=O)O)NC(=O)[C@H]([C@@H](C)CC)NC(=O)[C@H](CCCN=C(N)N)NC(=O)CNC(=O)CNC(=O)[C@H](Cc2ccccc2)NC(=O)C(C)NC(=O)[C@@H](NC(=O)[C@@H](N)CO)CSSC[C@@H](C(=O)N[C@@H](CC(N)=O)C(=O)N[C@@H](CO)C(=O)N[C@@H](Cc2ccccc2)C(=O)N[C@@H](CCCN=C(N)N)C(N)=O)NC(=O)CNC(=O)[C@H](CC(C)C)NC(=O)CNC(=O)[C@H](CO)NC(=O)[C@H](CCC(N)=O)NC(=O)[C@H](C)NC(=O)CNC1=O (some centres undefined) (H-SC[ξA]FGGRIDRIGAQSGLGCNSFR-NH2; disulfide 2-19)
- Ratio [1]: 25
- Relative potency [2]: 2.2
- Relative potency [3]: 0.088

SMILES: CC[C@H](C)[C@@H]1NC(=O)[C@H](CCCN=C(N)N)NC(=O)[C@H](CC(=O)O)NC(=O)[C@H]([C@@H](C)CC)NC(=O)[C@H](CCCN=C(N)N)NC(=O)CNC(=O)CNC(=O)[C@H](Cc2ccccc2)NC(=O)[C@@H](NC(=O)[C@H](CO)NC(=O)[C@@H](N)CO)CSSC[C@@H](C(=O)NCC(=O)N[C@@H](CC(N)=O)C(=O)N[C@@H](CO)C(=O)N[C@@H](Cc2ccccc2)C(=O)N[C@@H](CCCN=C(N)N)C(N)=O)NC(=O)[C@H](CC(C)C)NC(=O)CNC(=O)[C@H](CO)NC(=O)[C@H](CCC(N)=O)NC(=O)[C@H](C)NC(=O)CNC1=O (H-SSCFGGRIDRIGAQSGLCGNSFR-NH2; disulfide 3-18)
- Ratio [1]: 1
- Relative potency [2]: 0.91

SMILES: CC[C@H](C)[C@@H]1NC(=O)[C@H](CCCN=C(N)N)NC(=O)[C@H](CC(=O)O)NC(=O)[C@H]([C@@H](C)CC)NC(=O)[C@H](CCCN=C(N)N)NC(=O)CNC(=O)CNC(=O)[C@H](Cc2ccccc2)NC(=O)[C@@H](NC(=O)[C@H](CO)NC(=O)[C@@H](N)CO)CSSC[C@@H](C(=O)N[C@@H](CC(N)=O)C(=O)N[C@@H](CO)C(=O)N[C@@H](Cc2ccccc2)C(=O)N[C@@H](CCCN=C(N)N)C(N)=O)NC(=O)CNC(=O)[C@H](CC(C)C)NC(=O)CNC(=O)[C@H](CO)NC(=O)[C@H](CCC(N)=O)NC(=O)[C@H](C)NC(=O)CNC1=O (H-SSCFGGRIDRIGAQSGLGCNSFR-NH2; disulfide 3-19)
- Ratio [1]: 1
- Relative potency [2]: 1
